The subject of test [1] is adjuvant-induced arthritis. It is filed as in vivo, rat (male Lewis rats). The conditions noted are these: 30 mg/kg daily by intubation, 7 treatment days; day 28 minus day 21; micronized compound; standard deviation in parentheses. The protocol: As mentioned earlier, the compounds of formula (1) and pharmaceutically acceptable salts of compounds of formula (1) are useful in the treatment or prevention of inflammations. For example, they can be used as anti-inflammatory agents in the treatment of inflammatory joint diseases, such as arthritis, and in other diseases where inflammation is the inherent cause.
The adjuvant was prepared by homogenizing 170 mg of heat-killed and dried mycobacterium tuberculosis (Difco) in 22.7 mL of ‘Incomplete Freund's Adjuvant’ (ICFA, Difco). Male Lewis rats with body weights of 130-150 g were injected i.d. at the base of the tail with 0.1 ml of adjuvant. The non-diseased animals received 0.1 mL of ICFA i.d. The animals were housed individually and received feed and water ad libitum. The thus-induced arthritis was allowed to develop without treatment during 21 days. On day 21 the body weight of each animal was determined. At the same time, the volumes of the two hind paws of each animal were measured by immersing the paws in an aqueous plethysmograph up to the height of the lateral malleolus. […] Paw volumes and body weight were recorded diurnally. At the end of the treatment period (day 28), body weights and volumes of the hind paws were again determined. The changes over the treatment period were calculated. […] Subsequently, the animals were sacrificed and the liver weights recorded. […]

A further test addresses T1, ovine COX-1 (Ovis aries, UniProt P05979).
T1 construct: purchased Cayman Chemicals
T1 sequence (P05979 25-600): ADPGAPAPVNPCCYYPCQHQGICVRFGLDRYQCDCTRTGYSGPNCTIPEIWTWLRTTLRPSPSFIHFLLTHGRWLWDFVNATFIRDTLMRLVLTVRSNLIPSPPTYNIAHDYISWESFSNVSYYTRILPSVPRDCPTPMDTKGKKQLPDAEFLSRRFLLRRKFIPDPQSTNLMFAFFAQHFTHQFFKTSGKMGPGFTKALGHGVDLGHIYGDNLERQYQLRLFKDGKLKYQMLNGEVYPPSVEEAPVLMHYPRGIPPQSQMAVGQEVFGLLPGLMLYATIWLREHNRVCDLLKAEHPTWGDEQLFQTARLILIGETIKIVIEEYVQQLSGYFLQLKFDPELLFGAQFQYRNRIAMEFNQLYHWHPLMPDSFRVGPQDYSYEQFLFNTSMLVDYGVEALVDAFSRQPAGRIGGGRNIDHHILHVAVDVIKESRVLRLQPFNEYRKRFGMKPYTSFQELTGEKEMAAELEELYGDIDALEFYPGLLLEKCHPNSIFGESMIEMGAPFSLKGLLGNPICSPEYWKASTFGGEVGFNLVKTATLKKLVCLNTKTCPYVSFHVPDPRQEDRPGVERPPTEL
Description: COX activity assay (Cayman colorimetric kit), COX-1. To be noted: at a level of 300 μM; purified enzyme, peroxidase activity read at 590 nm. It is filed as biochemical. The protocol:
(§1) COX activity was measured using an assay kit obtained from Cayman Chemicals in accord with the instruction manual of the manufacturer “COX Activity Assay, Catalog No. 760151, Colorimetric Assay for the Determination of COX Activity.” The enzyme activity was determined by the peroxidase activity of cyclooxygenases on arachidonic acid and monitored colorimetrically at 590 nm by the appearance of oxidized N,N,N′,N′-tetramethyl-p-phenylenediamine. Both ovine COX-1 and human recombinant COX-2 were obtained from Cayman Chemicals.

A further test concerns the target T2, human recombinant COX-2 (Homo sapiens, UniProt P35354).
T2 construct: purchased Cayman Chemicals
T2 sequence (P35354 18-604): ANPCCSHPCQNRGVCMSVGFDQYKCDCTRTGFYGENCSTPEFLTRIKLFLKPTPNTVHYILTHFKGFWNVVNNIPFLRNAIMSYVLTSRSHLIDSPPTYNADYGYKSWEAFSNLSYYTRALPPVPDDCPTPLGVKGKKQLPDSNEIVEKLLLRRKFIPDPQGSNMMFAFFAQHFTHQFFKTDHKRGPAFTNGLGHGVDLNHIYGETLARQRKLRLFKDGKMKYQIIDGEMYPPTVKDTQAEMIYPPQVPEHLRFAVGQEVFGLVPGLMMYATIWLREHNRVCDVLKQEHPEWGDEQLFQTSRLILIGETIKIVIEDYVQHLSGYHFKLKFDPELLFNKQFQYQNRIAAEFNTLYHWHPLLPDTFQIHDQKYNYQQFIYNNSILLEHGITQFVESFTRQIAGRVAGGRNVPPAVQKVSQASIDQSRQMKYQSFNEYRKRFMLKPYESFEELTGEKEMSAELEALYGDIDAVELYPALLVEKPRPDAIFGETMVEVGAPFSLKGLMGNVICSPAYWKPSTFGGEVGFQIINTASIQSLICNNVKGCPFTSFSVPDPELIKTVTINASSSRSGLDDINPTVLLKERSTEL
Description: COX activity assay (Cayman colorimetric kit), COX-2. To be noted: purified enzyme, peroxidase activity read at 590 nm. The format is biochemical. The protocol: as §1

The text below walks through data of US8853248B2, “(1,2,3-triazolyl)sulfonyl derivatives” (priority 2012, dated 2014).

Each structure is given as a SMILES string.

As usually defined, the IC50 is the midpoint of a concentration-inhibition curve. Consider `CNS(=O)(=O)c1nn[nH]c1-c1cc(C(C)(C)C)c(O)c(C(C)(C)C)c1` [Compound 1i, 5-(3,5-di-tert-butyl-4-hydroxy-phenyl)-N-methyl-1H-triazole-4-sulfonamide], for which, in test [1], the “Volume change of left paw” value is listed as −0.73 (0.08) mL and the “Volume change of right paw” value was −0.63 (0.11) mL. For the same compound, the “effect on COX-1 activity” value on ovine COX-1 was “no effect”. In addition, the IC50 at human recombinant COX-2 came to 68 µM.
